Test results published in US11092602B2, “Methods and compositions relating to proteasome inhibitor resistance” (Whitehead Institute for Biomedical Research, priority 2015, dated 2021).
Entries after “also recorded” stand apart in the source; their conditions may differ. Residues, ends and D or L forms follow the SMILES beside them. *: point of attachment. Cbz = O=C(OCc1ccccc1)*

Legend:
T47D cells [1] = experiment: Cell viability of T47D cells with doxycycline-inducible PSMD2 shRNA; type: cell-based, human; details: for resistance of cells harboring the PSMD2 shRNA versus parental line (EC50): doxycycline 3 days, 96 hour culture
Protocol: T47D cells harboring a doxycycline inducible control shRNA (GFP) or a doxycycline-inducible PSMD2 shRNA (TurboRFP) were incubated with doxycycline for 3 days. Cells were then split and grown in the absence of Dox and proteasome inhibitors were then added at various concentrations. Cells were maintained in culture and then counted.
For the generation of the T47D Tet-inducible PSMD2 knockdown cell line—the TRIPZ vector with an inducible shRNA targeting PSMD2 was purchased from Dharmacon (clone V3THS_403760). It was introduced to the T47D cells according to manufactures protocol and cells were selected with puromycin 1 μg/ml for one week. The cells were exposed to doxycycline for 24 hours and cells were FACS sorted for the top 10% of most RFP expressing cells (highest expression of shRNA). The cells were further cultured in the absence of doxycycline and PSMD2 knockdown was induced as specified in the relevant Examples.
Relative cell growth and survival were measured in 96-well microplate format in the shRNA experiments and in 384 well format in the drug toxicity assays, by using the fluorescent detection of resazurin dye reduction as an endpoint (544 nm excitation and 590 nm emission). 2,500 cells in 96 wells format or 1,000 cells in 384 well format were plated 24 hours before compound exposure (for 72 hours or indicated time). Each analysis was performed at least with three replicas.

Saccharomyces cerevisiae = experiment: Yeast DAmP strains MG132 sensitivity assay; type: cell-based; details: 50 μM MG132, 48 hours
Description: Additionally, because the essential role of the proteasome in maintaining protein homeostasis is conserved across all eukaryotes (Hilt and Wolf, 1995), we asked whether reducing expression of 19S subunits confers resistance to proteasome inhibitors in an evolutionary distant organism—the yeast Saccharomyces cerevisiae. As the 19S regulatory complex components are essential for viability in yeast, we utilized a library of hypomorphic (DAmP) alleles for essential yeast genes. In this library, the expression of individual mRNA species is reduced from two to ten-fold by replacing the mRNA's 3′ untranslated region (Breslow et al., 2008).
Yeast cells were grown over night in media containing L-proline as nitrogen source instead of ammonium sulfate. […] OD was measured over the period of 48 hours.

T47D cells [2] = experiment: Selleck anti-cancer compound library screen, PSMD2 KD versus control T47D cells (resazurin); type: cell-based, human; details: 4 concentrations, 72 hours
Protocol: After 48 hours the cells were collected, counted, and plated at 1000 cells/well in 384 well plates in duplicates for each cell line. Compounds from the Selleck Chemicals anti-cancer compound library β49 drugs in 4 concentrations; […]) were pinned the next day and viability was measured after 72 hours by the reduction of Resazurin (Ex=530 nm, Em=590 nm).
The effect of each drug on viability of cells was calculated by averaging the duplicate experiments. The data is plotted in FIG. 16 as the log2 of the ratio of viability of PSMD2 KD versus control cells (log2 (shPSMD2/Control)).

T47D cells [3] = experiment: Competition co-culture of shPSMD2-RFP and shControl-GFP T47D cells, FACS and microscopy; type: cell-based, human; details: 1:10 plating ratio; concentration-dependent
Protocol: We created two cell lines—one line that expresses red fluorescent protein (turboRFP) and the doxycycline-inducible PSMD2-targeting shRNA and another line that expresses green fluorescent protein (GFP) and a doxycycline-inducible control shRNA (FIG. 6A). First, we induced shRNA expression with doxycycline for 48 hours. After recovery, we mixed shPSMD2-RFP and shControl-GFP cells at different ratios (either 1:1, 1:2, 1:5 or 1:10), adding the cells with reduced PSMD2 as the minority subpopulation. Twenty-four hours after plating, we treated these mixed populations of cells for 48 hours with increasing concentrations of bortezomib (5, 7.5 or 10 nM). We allowed the cells to recover in the absence of bortezomib and then we quantified the red and green cells by FACS analysis (FIG. 6A) and captured representative images by fluorescence microscopy (FIG. 6B).
The experiment described in Example 10 was repeated with minor differences using a panel of different proteasome inhibitors: MLN2238, MLN9708, and oprozomib T47D cells harboring a doxycycline inducible control shRNA (GFP) or a doxycycline-inducible PSMD2 shRNA (TurboRFP) were incubated with doxycycline for 3 days. Cells were collected, counted, and plated at a 1:10 ratio of TurboRFP-expressing PSMD2 shRNA cells/GFP expression control shRNA cells in the absence of Dox. Proteasome inhibitors were added at the specified concentrations and cells were maintained in culture. Cells were allowed to recover in the absence of the proteasome inhibitor and then analyzed by FACS (FIG. 8B, top) or visualized by microscopy (FIG. 8B, bottom). In the absence of proteasome inhibitors, the initial plating ratio of these cells (1:10) was maintained over the duration of the experiment (FIG. 8B). […] The effect was concentration-dependent in that higher concentrations elicited more substantial shifts.
cells were trypsinized in 100 μL Accumax® solution and further diluted into 100 μl PBSx1. The number of cells with red or green fluorescent proteins was measured by MACSQuant® VYB according to manufactures protocol. Images of RFP and GFP were created by overlaying images using Fiji software.

IMR32 and Kelly cells [4] = experiment: CellTiter-Glo viability of IMR32 and Kelly neuroblastoma cells; type: cell-based; details: 72 hours
Protocol: IMR32 and Kelly cells were each cultured in the presence of bortezomib at concentrations ranging from 0.001 um to 0.100 um. […] The fold viability relative to culture in the absence of bortezomib was determined for each cell line.
The fold viability relative to culture in the absence of the compound was determined for each cell line.

T47D cells [5] = experiment: CellTiter-Glo viability of PSMD2 KD versus control T47D cells with BCL2 family inhibitors; type: cell-based, human
Protocol: Cell viability was measured by CellTiter-Glo® Luminescent Cell Viability Assay 72 hours after addition of the compounds to cells.

IMR32 and Kelly cells [6] = experiment: CellTiter-Glo viability of IMR32 and Kelly neuroblastoma cells; type: cell-based; details: 72 hours; remark: listed apart in the source

Compound	selective effect on viability, PSMD2 KD versus control cells (log2 (shPSMD2/Control)) (T47D cells [2])	shift of surviving cell populations towards PSMD2 shRNA cells (T47D cells [3])	sensitivity of IMR32 cells versus Kelly cells (IMR32 and Kelly cells [4])	resistance of cells harboring the PSMD2 shRNA versus parental line (EC50) (T47D cells [1])	other results
CC(C)C[C@@H](C=O)NC(=O)[C@H](CC(C)C)NC(=O)[C@H](CC(C)C)NC(=O)OCc1ccccc1 [MG132, N-(benzyloxycarbonyl)leucinylleucinylleucinal] (Cbz-Leu-Leu-Leu-aldehyde)					resistance upon doxycycline-induced reduction of PSMD2 (T47D cells [1]; PSMD2 shRNA versus control): significantly increased resistance; resistance of 19S subunit DAmP strains to proteasome inhibition (Saccharomyces cerevisiae): five of these twelve strains had significantly increased resistance
CC(C)C[C@H](NC(=O)CNC(=O)c1cc(Cl)ccc1Cl)B(O)O [MLN2238, ixazomib]	selectively reduce viability of control cells versus PSMD2 KD cells	substantially shifted the populations of surviving cells			
CN(NC(=O)CC(=O)NN(C)C(=S)c1ccccc1)C(=S)c1ccccc1 [elesclomol]	selectively inhibit growth of T47D cancer cells that have a reduced level of PSMD2; also recorded: selectively reduce the viability of PSMD2 KD cells versus control cells		dramatically more sensitive		
CCN(CC)C(=S)SSC(=S)N(CC)CC [disulfiram, tetraethylthiuram disulfide]	selectively inhibit growth of T47D cancer cells that have a reduced level of PSMD2; also recorded: selectively reduce the viability of PSMD2 KD cells versus control cells		dramatically more sensitive		
COC[C@H](NC(=O)c1cnc(C)s1)C(=O)N[C@@H](COC)C(=O)N[C@@H](Cc1ccccc1)C(=O)[C@@]1(C)CO1 [oprozomib]		substantially shifted the populations of surviving cells		considerably more resistant	
ixazomib citrate [MLN9708]	selectively reduce viability of control cells versus PSMD2 KD cells	substantially shifted the populations of surviving cells		considerably more resistant	
COc1ccc(-c2ccc3c(N4CCOCC4)nc(N4C[C@@H](C)O[C@@H](C)C4)nc3n2)cc1CO [Ku-0063794]	selectively inhibit growth of T47D cancer cells that have a reduced level of PSMD2; also recorded: selectively reduce the viability of PSMD2 KD cells versus control cells				
Nc1nc(Cl)nc2c1ncn2[C@H]1C[C@H](O)[C@@H](CO)O1 [cladribine, 2-chlorodeoxyadenosine]	selectively inhibit growth of T47D cancer cells that have a reduced level of PSMD2; also recorded: selectively reduce the viability of PSMD2 KD cells versus control cells				
CC(C)C[C@H](NC(=O)[C@H](CCc1ccccc1)NC(=O)CN1CCOCC1)C(=O)N[C@@H](Cc1ccccc1)C(=O)N[C@@H](CC(C)C)C(=O)[C@@]1(C)CO1 [carfilzomib]				considerably more resistant	
CC1(C)CCC(c2ccc(Cl)cc2)=C(CN2CCN(c3ccc(C(=O)NS(=O)(=O)c4ccc(N[C@H](CCN5CCOCC5)CSc5ccccc5)c(S(=O)(=O)C(F)(F)F)c4)cc3)CC2)C1 [ABT-263, navitoclax]	selectively inhibits growth of T47D cancer cells that have a reduced level of PSMD2; also recorded: selectively reduce the viability of PSMD2 KD cells versus control cells		dramatically more sensitive; also recorded: significantly more sensitive		sensitivity of PSMD2 KD cells versus control cells (T47D cells [5]; 72 hours): more sensitive; sensitization by suppression of 19S subunit PSMD2 (T47D cells [5]; doxycycline-induced): not sufficient, however, to induce a profound sensitization; preferential sensitivity of IMR32 versus Kelly cells, compared between BCL2 family inhibitors (IMR32 and Kelly cells [6]): much greater; sensitivity after reintroduction of the PSMD5 subunit (IMR32 and Kelly cells [6]; IMR32 cells): did not significantly alter
